Test system: follicles (microcomedones)
Design: species or system human
Conditions: in vivo
Procedure: A study is conducted to determine the comedogenic potential of test materials in the form of day cream and eye cream with formulations disclosed above by assessing whether the test materials elicited microcomedones, after four weeks of repeated application under occlusive patch conditions, relative to a negative control (undosed patch). Acetylated Lanolin Alcohol served as a positive control material in order to validate the study. The tests are conducted during a 4 week study period. A total of 15 subjects, ranging in age from 22 to 45 years, are selected for the study. All 15 participants completed the study.

Acetylated Lanolin Alcohol
average ratio of microcomedones per follicle: 6% | ratio of microcomedones to follicles compared with negative control (statistics): significantly greater ratio than the negative control

Source: US8992996B2, “Cosmetic” (Restorsea, LLC, priority 2012, dated 2015)
